Reference: ChEMBL document CHEMBL3045633, “Synthesis and antimicrobial activity of newer indole semicarbazones” (2012)
≈ marks a conversion by molar mass, not a printed value.

Assays:
Assay type in all cases: functional
Candida albicans [1] = test: Antifungal activity against Candida albicans at 50 ug after 48 hr by agar cup bioassay; conditions: read-out: DIZ
Diutina rugosa [2] = test: Antifungal activity against Candida rugosa at 50 ug after 48 hr by agar cup bioassay; conditions: read-out: DIZ
Klebsiella pneumoniae = test: Antibacterial activity against Klebsiella pneumoniae after 24 hr by broth dilution method
Candida albicans [3] = test: Antifungal activity against Candida albicans at 100 ug after 48 hr by agar cup bioassay; conditions: read-out: DIZ
Bacillus subtilis = test: Antibacterial activity against Bacillus subtilis after 24 hr by broth dilution method
Candida albicans [4] = test: Antifungal activity against Candida albicans at 150 ug after 48 hr by agar cup bioassay; conditions: read-out: DIZ
[5] = test system: Staphylococcus epidermidis; test: Antibacterial activity against Staphylococcus epidermidis after 24 hr by broth dilution method
Escherichia coli = test: Antibacterial activity against Escherichia coli after 24 hr by broth dilution method
Diutina rugosa [6] = test: Antifungal activity against Candida rugosa at 100 ug after 48 hr by agar cup bioassay; conditions: read-out: DIZ
Diutina rugosa [7] = test: Antifungal activity against Candida rugosa at 150 ug after 48 hr by agar cup bioassay; conditions: read-out: DIZ
Staphylococcus aureus = test: Antibacterial activity against Staphylococcus aureus after 24 hr by broth dilution method
Pseudomonas aeruginosa = test: Antibacterial activity against Pseudomonas aeruginosa after 24 hr by broth dilution method

SMILES	MIC (Klebsiella pneumoniae)	MIC (Bacillus subtilis)	MIC [5]	MIC (Escherichia coli)	MIC (Staphylococcus aureus)	MIC (Pseudomonas aeruginosa)	zone of inhibition at 50 µg/disc (Candida albicans [1])	zone of inhibition at 50 µg/disc (Diutina rugosa [2])	zone of inhibition at 100 µg/disc (Candida albicans [3])	zone of inhibition at 150 µg/disc (Candida albicans [4])	zone of inhibition at 100 µg/disc (Diutina rugosa [6])	zone of inhibition at 150 µg/disc (Diutina rugosa [7])
C[C@@H]1[C@H](O)[C@@H](C)/C=C/C=C/C=C/C=C/C=C/C=C/C=C/[C@H](O[C@@H]2O[C@H](C)[C@@H](O)[C@H](N)[C@@H]2O)C[C@@H]2O[C@](O)(C[C@@H](O)C[C@@H](O)[C@H](O)CC[C@@H](O)C[C@@H](O)CC(=O)O[C@H]1C)C[C@H](O)[C@H]2C(=O)O [AMPHOTERICIN B]							23.5 mm	21 mm				
C#CCn1c(-c2ccccc2)c(/C=N/NC(N)=O)c2ccccc21	110 µg/mL (≈ 348 µM)	125 µg/mL (≈ 395 µM)	> 150 µg/mL	> 150 µg/mL	> 150 µg/mL	> 150 µg/mL			8 mm	13 mm	10 mm	15 mm
O=C(O)c1cn(C2CC2)c2cc(N3CCNCC3)c(F)cc2c1=O [CIPROFLOXACIN]	25 µg/mL (≈ 75.4 µM)	24 µg/mL (≈ 72.4 µM)	22 µg/mL (≈ 66.4 µM)	20 µg/mL (≈ 60.4 µM)								
NC(=O)N/N=C/c1c(-c2ccccc2)n(CC(=O)c2ccc(Cl)cc2)c2ccccc12	120 µg/mL (≈ 278 µM)	110 µg/mL (≈ 255 µM)	140 µg/mL (≈ 325 µM)	125 µg/mL (≈ 290 µM)	130 µg/mL (≈ 302 µM)	115 µg/mL (≈ 267 µM)			4 mm	10 mm	5 mm	12 mm
NC(=O)N/N=C/c1c(-c2ccccc2)n(CC(=O)c2ccc(-c3ccccc3)cc2)c2ccccc12	135 µg/mL (≈ 286 µM)	> 150 µg/mL	130 µg/mL (≈ 275 µM)	120 µg/mL (≈ 254 µM)	110 µg/mL (≈ 233 µM)	105 µg/mL (≈ 222 µM)						
NC(=O)N/N=C/c1c(-c2ccccc2)n(CC(=O)c2ccc(Br)cc2)c2ccccc12	130 µg/mL (≈ 273 µM)	105 µg/mL (≈ 221 µM)	130 µg/mL (≈ 273 µM)	120 µg/mL (≈ 252 µM)	125 µg/mL (≈ 263 µM)	135 µg/mL (≈ 284 µM)						

Continued, in another order:

MIC (Klebsiella pneumoniae)	MIC (Bacillus subtilis)	MIC [5]	MIC (Escherichia coli)	MIC (Staphylococcus aureus)	MIC (Pseudomonas aeruginosa)	SMILES	zone of inhibition at 50 µg/disc (Candida albicans [1])	zone of inhibition at 50 µg/disc (Diutina rugosa [2])	zone of inhibition at 100 µg/disc (Candida albicans [3])	zone of inhibition at 150 µg/disc (Candida albicans [4])	zone of inhibition at 100 µg/disc (Diutina rugosa [6])	zone of inhibition at 150 µg/disc (Diutina rugosa [7])
> 150 µg/mL	140 µg/mL (≈ 440 µM)	115 µg/mL (≈ 361 µM)	120 µg/mL (≈ 377 µM)	125 µg/mL (≈ 393 µM)	125 µg/mL (≈ 393 µM)	C=CCn1c(-c2ccccc2)c(/C=N/NC(N)=O)c2ccccc21			10 mm	15 mm	7 mm	12 mm
110 µg/mL (≈ 329 µM)	> 150 µg/mL	135 µg/mL (≈ 404 µM)	140 µg/mL (≈ 419 µM)	125 µg/mL (≈ 374 µM)	120 µg/mL (≈ 359 µM)	CCCCn1c(-c2ccccc2)c(/C=N/NC(N)=O)c2ccccc21			9 mm	12 mm	9 mm	10 mm
37.5 µg/mL (≈ 84.9 µM)	120 µg/mL (≈ 272 µM)	110 µg/mL (≈ 249 µM)	130 µg/mL (≈ 294 µM)	125 µg/mL (≈ 283 µM)	75 µg/mL (≈ 170 µM)	NC(=O)N/N=C/c1c(-c2ccccc2)n(CC(=O)c2ccc([N+](=O)[O-])cc2)c2ccccc12			9 mm	14 mm	10 mm	14 mm
> 150 µg/mL	> 150 µg/mL	125 µg/mL (≈ 305 µM)	130 µg/mL (≈ 317 µM)	130 µg/mL (≈ 317 µM)	> 150 µg/mL	Cc1ccc(C(=O)Cn2c(-c3ccccc3)c(/C=N/NC(N)=O)c3ccccc32)cc1			7 mm	10 mm	7 mm	10 mm
115 µg/mL (≈ 290 µM)	125 µg/mL (≈ 315 µM)	110 µg/mL (≈ 277 µM)	100 µg/mL (≈ 252 µM)	130 µg/mL (≈ 328 µM)	100 µg/mL (≈ 252 µM)	NC(=O)N/N=C/c1c(-c2ccccc2)n(CC(=O)c2ccccc2)c2ccccc12			0 mm	8 mm	0 mm	8 mm
120 µg/mL (≈ 281 µM)	140 µg/mL (≈ 328 µM)	130 µg/mL (≈ 305 µM)	140 µg/mL (≈ 328 µM)	110 µg/mL (≈ 258 µM)	145 µg/mL (≈ 340 µM)	COc1ccc(C(=O)Cn2c(-c3ccccc3)c(/C=N/NC(N)=O)c3ccccc32)cc1			8 mm	10 mm	8 mm	10 mm
